Measured values taken from ChEMBL document CHEMBL5154751, “Intramolecular Interactions Enhance the Potency of Gallinamide A Analogues against Trypanosoma cruzi” (J Med Chem, 2022).

Legend:
[1] = Cytotoxicity against mouse C2C12 cells assessed as lethal dose; assay type: toxicity, cell-based; conditions: read-out: LD50 (the source's name)
Cruzipain = Cruzipain (Trypanosoma cruzi, UniProt P25779); experiment: Inhibition of Trypanosoma cruzi cruzain using Z-FR-AMC as substrate preincubated for 10 mins followed by substrate addition by fluorimetric analysis
Cruzipain, sequence (P25779 whole entry): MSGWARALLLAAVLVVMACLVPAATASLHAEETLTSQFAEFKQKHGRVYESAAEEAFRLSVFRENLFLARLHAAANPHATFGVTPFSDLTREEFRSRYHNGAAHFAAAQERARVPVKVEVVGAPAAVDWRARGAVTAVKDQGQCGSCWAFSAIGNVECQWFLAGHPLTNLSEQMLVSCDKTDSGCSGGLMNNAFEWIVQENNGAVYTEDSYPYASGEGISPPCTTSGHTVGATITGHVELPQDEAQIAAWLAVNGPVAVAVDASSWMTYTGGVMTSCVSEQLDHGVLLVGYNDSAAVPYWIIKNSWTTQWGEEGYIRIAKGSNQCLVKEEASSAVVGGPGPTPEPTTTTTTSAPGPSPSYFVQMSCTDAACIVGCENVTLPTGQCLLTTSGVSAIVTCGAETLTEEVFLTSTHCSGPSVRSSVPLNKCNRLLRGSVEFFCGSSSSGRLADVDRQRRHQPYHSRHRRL

Trypanosoma cruzi = experiment: Antitrypanosomal activity against amastigotes form of Trypanosoma cruzi CA-I/72 infected in mouse C2C12 cells assessed as parasite infection level by DAPI staining based microscopic analysis; assay type: functional, organism-based; conditions: CA-I/72, C2C12

Structure (SMILES) | CC50 [1] | IC50 (Cruzipain) | EC50 (Trypanosoma cruzi)
COC1=CC(=O)N(C(=O)/C=C/[C@H](C)NC(=O)[C@H](CC(C)C)NC(=O)[C@H](CC(C)C)NC(=O)[C@H](C(C)C)N(C)C)[C@H]1Cc1c[nH]c2ccccc12 | > 0.6 µM | – | –
COC1=CC(=O)N(C(=O)/C=C/[C@H](C)NC(=O)[C@H](CC(C)C)NC(=O)[C@H](CC(C)C)NC(=O)C2CCN(C)CC2)[C@H]1Cc1c[nH]c2ccccc12 | > 0.6 µM | – | –
COC1=CC(=O)N(C(=O)/C=C/[C@H](C)NC(=O)[C@H](CC(C)C)NC(=O)[C@H](CC2CCCCC2)NC(=O)C2CCN(C)CC2)[C@H]1Cc1c[nH]c2ccccc12 | > 0.6 µM | – | –
COC1=CC(=O)N(C(=O)/C=C/[C@H](C)NC(=O)[C@H](CC2CCCCC2)NC(=O)[C@H](CC(C)C)NC(=O)C2CCN(C)CC2)[C@H]1Cc1c[nH]c2ccccc12 | > 0.6 µM | – | –
COC1=CC(=O)N(C(=O)/C=C/[C@H](C)NC(=O)[C@H](CC2CCCCC2)NC(=O)[C@H](CC2CCCCC2)NC(=O)C2CCN(C)CC2)[C@H]1Cc1c[nH]c2ccccc12 | > 0.6 µM | – | –
COC1=CC(=O)N(C(=O)/C=C/[C@H](C)NC(=O)[C@H](CC(C)C)NC(=O)[C@H](Cc2ccccc2)NC(=O)[C@H](C(C)C)N(C)C)[C@H]1Cc1c[nH]c2ccccc12 | > 0.6 µM | – | –
COC1=CC(=O)N(C(=O)/C=C/[C@H](C)NC(=O)[C@H](CCc2ccccc2)NC(=O)[C@H](CC(C)C)NC(=O)[C@H](C(C)C)N(C)C)[C@H]1Cc1c[nH]c2ccccc12 | > 0.6 µM | – | –
COC1=CC(=O)N(C(=O)/C=C/[C@H](C)NC(=O)[C@H](CC(C)C)NC(=O)[C@H](CC2CCCCC2)NC(=O)[C@H](C(C)C)N(C)C)[C@H]1Cc1c[nH]c2ccccc12 | > 0.6 µM | – | –
COC1=CC(=O)N(C(=O)/C=C/[C@H](CCc2ccccc2)NC(=O)[C@H](CC(C)C)NC(=O)[C@H](CC(C)C)NC(=O)[C@H](C(C)C)N(C)C)[C@H]1Cc1c[nH]c2ccccc12 | > 0.6 µM | – | –
COC1=CC(=O)N(C(=O)/C=C/[C@H](C)NC(=O)[C@H](CC2CCCCC2)NC(=O)[C@H](CC(C)C)NC(=O)[C@H](C(C)C)N(C)C)[C@H]1Cc1c[nH]c2ccccc12 | > 0.6 µM | – | –
COC1=CC(=O)N(C(=O)/C=C/[C@H](C)NC(=O)[C@H](CC2CCCCC2)NC(=O)[C@H](CC2CCCCC2)NC(=O)[C@H](C(C)C)N(C)C)[C@H]1Cc1c[nH]c2ccccc12 | > 0.6 µM | – | –
COC1=CC(=O)N(C(=O)/C=C/[C@@H](NC(=O)[C@H](CC(C)C)NC(=O)[C@H](CC2CCCCC2)NC(=O)[C@H](C(C)C)N(C)C)C2CCCCC2)[C@H]1Cc1c[nH]c2ccccc12 | > 0.6 µM | – | –
COC1=CC(=O)N(C(=O)/C=C/[C@H](C)NC(=O)[C@H](CCc2ccccc2)NC(=O)[C@H](CC2CCCCC2)NC(=O)[C@H](C(C)C)N(C)C)[C@H]1Cc1c[nH]c2ccccc12 | > 0.6 µM | – | –
COC1=CC(=O)N(C(=O)/C=C/[C@@H](CCc2ccccc2)NC(=O)[C@H](CC(C)C)NC(=O)[C@H](CC(C)C)NC(=O)[C@H](C(C)C)N(C)C)C1Cc1ccc(-c2ccccc2)cc1 (some centres undefined) | > 0.6 µM | 0.00012 µM | 0.013 µM
COC1=CC(=O)N(C(=O)/C=C/[C@H](CCc2ccccc2)NC(=O)[C@H](CC(C)C)NC(=O)[C@H](CC(C)C)NC(=O)C2CCN(C)CC2)C1Cc1ccc(-c2ccc(C#N)cc2)cc1 (some centres undefined) | > 0.6 µM | 0.00013 µM | 0.423 µM
COC1=CC(=O)N(C(=O)/C=C/[C@@H](CCc2ccccc2)NC(=O)[C@H](CC(C)C)NC(=O)[C@H](CC(C)C)NC(=O)[C@H](C(C)C)N(C)C)C1Cc1ccc(-c2ccc(OC)cc2)cc1 (some centres undefined) | > 0.6 µM | 0.00028 µM | 0.019 µM
COC1=CC(=O)N(C(=O)/C=C/[C@H](CCc2ccccc2)NC(=O)[C@H](CC(C)C)NC(=O)[C@H](CC(C)C)NC(=O)C2CCN(C)CC2)C1Cc1ccc(-c2ccc(C(F)(F)F)cc2)cc1 (some centres undefined) | > 0.6 µM | 0.00079 µM | 0.42 µM
COC1=CC(=O)N(C(=O)/C=C/[C@H](CCc2ccccc2)NC(=O)[C@H](CC(C)C)NC(=O)[C@H](CC(C)C)NC(=O)C2CCN(C)CC2)C1Cc1ccc(-c2ccccc2)cc1 (some centres undefined) | > 0.6 µM | 0.0004 µM | 0.222 µM
COC1=CC(=O)N(C(=O)/C=C/[C@@H](CCc2ccccc2)NC(=O)[C@H](CC(C)C)NC(=O)[C@H](CC(C)C)NC(=O)[C@H](C(C)C)N(C)C)C1Cc1ccc(-c2ccc(C#N)cc2)cc1 (some centres undefined) | > 0.6 µM | 0.00011 µM | 0.019 µM
COC1=CC(=O)N(C(=O)/C=C/[C@@H](CCc2ccccc2)NC(=O)[C@H](CC(C)C)NC(=O)[C@H](CC(C)C)NC(=O)[C@H](C(C)C)N(C)C)C1Cc1ccc(-c2ccc(C(F)(F)F)cc2)cc1 (some centres undefined) | > 0.6 µM | 0.00068 µM | 0.078 µM
CCCC[C@H]1O[C@@H]1/C=C/C=O | > 0.6 µM | 0.0297 µM | –
COC1=CC(=O)N(C(=O)/C=C/[C@H](CCc2ccccc2)NC(=O)[C@H](CC(C)C)NC(=O)[C@H](CC(C)C)NC(=O)C2CCN(C)CC2)C1Cc1ccc(-c2ccc(OC)cc2)cc1 (some centres undefined) | > 0.6 µM | 0.00026 µM | 0.261 µM
COC1=CC(=O)N(C(=O)/C=C/[C@H](CCc2ccccc2)NC(=O)[C@H](CC(C)C)NC(=O)[C@H](CC(C)C)NC(=O)C2CCN(C)CC2)C1Cc1ccc(-c2ccc3ccccc3c2)cc1 (some centres undefined) | > 0.6 µM | 0.00156 µM | 0.521 µM
COC1=CC(=O)N(C(=O)/C=C/[C@@H](CCc2ccccc2)NC(=O)[C@H](CC(C)C)NC(=O)[C@H](CC(C)C)NC(=O)[C@H](C(C)C)N(C)C)C1Cc1ccc(-c2ccc3ccccc3c2)cc1 (some centres undefined) | > 0.6 µM | 0.00069 µM | 0.059 µM
O=C(Cn1ccnc1[N+](=O)[O-])NCc1ccccc1 [BENZNIDAZOLE] | > 0.6 µM | – | 1.91 µM
CC[C@H](C)[C@@H](C(=O)O[C@@H](CC(C)C)C(=O)N[C@@H](CC(C)C)C(=O)N[C@@H](C)/C=C/C(=O)N1C(=O)C=C(OC)[C@@H]1C)N(C)C [GALLINAMIDE A] | > 0.6 µM | 0.0013 µM | –
